From ChEMBL document CHEMBL3885881, “DrugMatrix”

Organism: Rattus norvegicus
Assay: DrugMatrix - Regimen: Daily Repeat
Assay type: toxicity, organism-based, Sprague-Dawley
Design: regimen Daily Repeat, gender Male, age 6-8 weeks
Settings: in vivo, po, route oral GAVAGE, vehicle .5 % CMC
[1] = 83 mg/kg, 72 h, tissue Blood, dose level High, time 3 day
[2] = 83 mg/kg, 72 h, tissue Plasma, dose level High, time 3 day
[3] = 83 mg/kg, 120 h, tissue Blood, dose level High, time 5 day
[4] = 83 mg/kg, 120 h, tissue Plasma, dose level High, time 5 day
[5] = […], 72 h, tissue Blood, dose 8.3 mg/Kg, dose level Low, time 3 day
[6] = […], 72 h, tissue Plasma, dose 8.3 mg/Kg, dose level Low, time 3 day
[7] = […], 120 h, tissue Blood, dose 8.3 mg/Kg, dose level Low, time 5 day
[8] = […], 120 h, tissue Plasma, dose 8.3 mg/Kg, dose level Low, time 5 day

Substance: SODIUM ORTHOVANAD
- ABSOLUTE BASOPHIL [1]: 0 CELLS/uL
- ABSOLUTE EOSINOPHIL [1]: 49.33 CELLS/uL
- ABSOLUTE LYMPHOCYTE [1]: 13060 CELLS/uL
- ABSOLUTE MONOCYTE [1]: 206 CELLS/uL
- ABSOLUTE SEGMENTED NEUTROPHIL [1]: 2051.33 CELLS/uL
- BASOPHIL [1]: 0%
- EOSINOPHIL [1]: 0.33%
- ERYTHROCYTE COUNT [1]: 5.99 x10E6/uL
- LEUKOCYTE COUNT [1]: 15.37 x10E3/uL
- LYMPHOCYTE [1]: 85%
- MEAN CORPUSCULAR HEMOGLOBIN [1]: 23.17 pg
- MEAN CORPUSCULAR HEMOGLOBIN CONCENTRATION [1]: 37.8 G/DL
- NEUTROPHIL [1]: 13.33%
- NUCLEATED RED BLOOD CELLS [1]: 0.67 /100WBC
- PLATELET COUNT [1]: 1409 x10E3/uL
- ALANINE AMINOTRANSFERASE [2]: 51.33 u/L
- ALKALINE PHOSPHATASE [2]: 333.67 u/L
- ASPARTATE AMINOTRANSFERASE [2]: 81.67 u/L
- BLOOD UREA NITROGEN [2]: 13.33 mg/dL
- CARBON DIOXIDE [2]: 16.67 mmol/L
- CHOLESTEROL [2]: 69 mg/dL
- CREATINE PHOSPHOKINASE [2]: 309.33 u/L
- CREATININE [2]: 0.2 mg/dL
- LACTATE DEHYDROGENASE [2]: 147.67 u/L
- LIPASE [2]: 9 u/L
- PHOSPHORUS [2]: 10.33 mg/dL
- POTASSIUM [2]: 6.71 MEQ/L
- SODIUM [2]: 146.67 MEQ/L
- TOTAL BILIRUBIN [2]: 0.27 mg/dL
- TOTAL PROTEIN [2]: 5.43 G/DL
- URIC ACID [2]: 1.8 mg/dL
- ABSOLUTE BASOPHIL [3]: 0 CELLS/uL
- ABSOLUTE EOSINOPHIL [3]: 42.5 CELLS/uL
- ABSOLUTE LYMPHOCYTE [3]: 9180 CELLS/uL
- ABSOLUTE MONOCYTE [3]: 133 CELLS/uL
- ABSOLUTE SEGMENTED NEUTROPHIL [3]: 1544.5 CELLS/uL
- BASOPHIL [3]: 0%
- EOSINOPHIL [3]: 0.5%
- ERYTHROCYTE COUNT [3]: 6.11 x10E6/uL
- HEMATOCRIT [3]: 36.85%
- HEMOGLOBIN [3]: 13.8 G/DL
- LEUKOCYTE COUNT [3]: 10.9 x10E3/uL
- LYMPHOCYTE [3]: 84%
- MEAN CORPUSCULAR HEMOGLOBIN [3]: 22.65 pg
- MEAN CORPUSCULAR HEMOGLOBIN CONCENTRATION [3]: 37.45 G/DL
- MEAN CORPUSCULAR VOLUME [3]: 60.35 fL
- MONOCYTE [3]: 1%
- NEUTROPHIL [3]: 14.5%
- NUCLEATED RED BLOOD CELLS [3]: 0 /100WBC
- PLATELET COUNT [3]: 1518 x10E3/uL
- ALANINE AMINOTRANSFERASE [4]: 55 u/L
- ALBUMIN [4]: 4.2 G/DL
- ALKALINE PHOSPHATASE [4]: 268.5 u/L
- ASPARTATE AMINOTRANSFERASE [4]: 90 u/L
- BLOOD UREA NITROGEN [4]: 15.5 mg/dL
- CARBON DIOXIDE [4]: 32.5 mmol/L
- CHOLESTEROL [4]: 82 mg/dL
- CREATINE PHOSPHOKINASE [4]: 294.5 u/L
- CREATININE [4]: 0.22 mg/dL
- LACTATE DEHYDROGENASE [4]: 221.5 u/L
- LIPASE [4]: 14 u/L
- POTASSIUM [4]: 6.81 MEQ/L
- SODIUM [4]: 147.35 MEQ/L
- TOTAL BILIRUBIN [4]: 0.15 mg/dL
- TOTAL PROTEIN [4]: 6 G/DL
- URIC ACID [4]: 1.65 mg/dL
- ABSOLUTE BASOPHIL [5]: 0 CELLS/uL
- ABSOLUTE EOSINOPHIL [5]: 0 CELLS/uL
- ABSOLUTE MONOCYTE [5]: 61 CELLS/uL
- ABSOLUTE SEGMENTED NEUTROPHIL [5]: 1531 CELLS/uL
- BASOPHIL [5]: 0%
- EOSINOPHIL [5]: 0%
- ERYTHROCYTE COUNT [5]: 5.33 x10E6/uL
- HEMATOCRIT [5]: 34.23%
- HEMOGLOBIN [5]: 13.1 G/DL
- LEUKOCYTE COUNT [5]: 14.33 x10E3/uL
- LYMPHOCYTE [5]: 89%
- MEAN CORPUSCULAR HEMOGLOBIN [5]: 24.6 pg
- MEAN CORPUSCULAR HEMOGLOBIN CONCENTRATION [5]: 38.27 G/DL
- MONOCYTE [5]: 0.33%
- NEUTROPHIL [5]: 10.67%
- NUCLEATED RED BLOOD CELLS [5]: 0 /100WBC
- PLATELET COUNT [5]: 1191.67 x10E3/uL
- ALANINE AMINOTRANSFERASE [6]: 51 u/L
- ALBUMIN [6]: 4.1 G/DL
- ALKALINE PHOSPHATASE [6]: 345.67 u/L
- ASPARTATE AMINOTRANSFERASE [6]: 90.67 u/L
- BLOOD UREA NITROGEN [6]: 12.67 mg/dL
- CARBON DIOXIDE [6]: 22 mmol/L
- CHLORIDE [6]: 108.67 MEQ/L
- CHOLESTEROL [6]: 71.67 mg/dL
- CREATINE PHOSPHOKINASE [6]: 295.67 u/L
- CREATININE [6]: 0.21 mg/dL
- LACTATE DEHYDROGENASE [6]: 309 u/L
- LIPASE [6]: 11 u/L
- PHOSPHORUS [6]: 11.73 mg/dL
- POTASSIUM [6]: 6.03 MEQ/L
- TOTAL BILIRUBIN [6]: 0.2 mg/dL
- TOTAL PROTEIN [6]: 5.73 G/DL
- URIC ACID [6]: 1.3 mg/dL
- ABSOLUTE BASOPHIL [7]: 0 CELLS/uL
- ABSOLUTE EOSINOPHIL [7]: 0 CELLS/uL
- ABSOLUTE LYMPHOCYTE [7]: 10049 CELLS/uL
- ABSOLUTE MONOCYTE [7]: 38 CELLS/uL
- ABSOLUTE SEGMENTED NEUTROPHIL [7]: 579.67 CELLS/uL
- BASOPHIL [7]: 0%
- EOSINOPHIL [7]: 0%
- ERYTHROCYTE COUNT [7]: 5.74 x10E6/uL
- HEMATOCRIT [7]: 36.57%
- LEUKOCYTE COUNT [7]: 10.67 x10E3/uL
- LYMPHOCYTE [7]: 94.33%
- MEAN CORPUSCULAR HEMOGLOBIN [7]: 23.4 pg
- MEAN CORPUSCULAR HEMOGLOBIN CONCENTRATION [7]: 36.67 G/DL
- MONOCYTE [7]: 0.33%
- NEUTROPHIL [7]: 5.33%
- NUCLEATED RED BLOOD CELLS [7]: 0.33 /100WBC
- PLATELET COUNT [7]: 1343.67 x10E3/uL
- ALANINE AMINOTRANSFERASE [8]: 63.33 u/L
- ALKALINE PHOSPHATASE [8]: 318 u/L
- ASPARTATE AMINOTRANSFERASE [8]: 80 u/L
- CARBON DIOXIDE [8]: 24 mmol/L
- CHOLESTEROL [8]: 69.33 mg/dL
- CREATINE PHOSPHOKINASE [8]: 250 u/L
- CREATININE [8]: 0.18 mg/dL
- GLUCOSE [8]: 176.33 mg/dL
- LACTATE DEHYDROGENASE [8]: 93.33 u/L
- POTASSIUM [8]: 6.41 MEQ/L
- SODIUM [8]: 147.03 MEQ/L
- TOTAL BILIRUBIN [8]: 0.27 mg/dL
- TOTAL PROTEIN [8]: 6.2 G/DL
- URIC ACID [8]: 2.1 mg/dL
